Assays:
[1] = target: T1, PDE9A (Homo sapiens, UniProt O76083); assay: PDE inhibition: recombinant PDE9A, [3H]cGMP scintillation proximity assay; type: biochemical; parameters: made in house; host or cells: Sf9 cells, pFASTBAC baculovirus expression system; conditions: recombinant PDE9A expressed in Sf9 cells; read-out: IC50 (PDE9A-inhibiting effect)
Description: Recombinant PDE1C (GenBank/EMBL Accession Number: NM_005020, Loughney et al. J. Biol. Chem. 1996 271, 796-806), PDE2A (GenBank/EMBL Accession Number: NM_002599, Rosman et al. Gene 1997 191, 89-95), PDE3B (GenBank/EMBL Accession Number: NM_000922, Miki et al. Genomics 1996, 36, 476-485), PDE4B (GenBank/EMBL Accession Number: NM_002600, Obernolte et al. Gene. 1993, 129, 239-247), PDE5A (GenBank/EMBL Accession Number: NM_001083, Loughney et al. Gene 1998, 216, 139-147), PDE7B (GenBank/EMBL Accession Number: NM_018945, Hetman et al. Proc. Natl. Acad. Sci. U.S.A. 2000, 97, 472-476), PDE8A (GenBank/EMBL Accession Number: AF—056490, Fisher et al. Biochem. Biophys. Res. Commun. 1998 246, 570-577), PDE9A (Fisher et al., J. Biol. Chem, 1998, 273 (25): 15559-15564), PDE10A (GenBank/EMBL Accession Number: NM_06661, Fujishige et al. J Biol Chem. 1999, 274, 18438-45), PDE11A (GenBank/EMBL Accession Number: NM_016953, Fawcett et al. Proc. Natl. Acad. Sci. 2000, 97, 3702-3707) were expressed in Sf9 cells with the aid of the pFASTBAC baculovirus expression system (GibcoBRL).
The test substances are dissolved in 100% DMSO and serially diluted to determine their in vitro effect on PDE 9A. Typically, serial dilutions from 200 μM to 1.6 μM are prepared (resulting final concentrations in the assay: 4 μM to 0.032 μM). 2 μL portions of the diluted substance solutions are introduced into the wells of microtiter plates (Isoplate; Wallac Inc., Atlanta, Ga.). Then 50 μL of a dilution of the PDE9A preparation described above are added. The dilution of the PDE9A preparation is chosen so that less than 70% of the substrate is converted during the subsequent incubation (typical dilution: 1:10000; dilution buffer: 50 mM Tris/HCl pH 7.5, 8.3 mM MgCl2, 1.7 mM EDTA, 0.2% BSA). The substrate, [8-^3H] guanosine 3′,5′-cyclic phosphate (1 μCi/μL; Amersham Pharmacia Biotech., Piscataway, N.J.) is diluted 1:2000 with assay buffer (50 mM Tris/HCl pH 7.5, 8.3 mM MgCl2, 1.7 mM EDTA) to a concentration of 0.0005 μCi/μL. The enzyme reaction is finally started by adding 50 μL (0.025 μCi) of the diluted substrate. The assay mixtures are incubated at room temperature for 60 min and the reaction is stopped by adding 25 μl of a PDE9A inhibitor (e.g. the inhibitor from preparation example 1, final concentration 10 μM) dissolved in assay buffer. Immediately thereafter, 25 μL of a suspension containing 18 mg/mL Yttrium Scintillation Proximity Beads (Amersham Pharmacia Biotech., Piscataway, N.J.) are added. The microtiter plates are sealed with a film and left to stand at room temperature for 60 min. The plates are then measured for 30 s per well in a Microbeta scintillation counter (Wallac Inc., Atlanta, Ga.). IC50 values are determined from the graphical plot of the substance concentration versus the percentage inhibition.

[2] = target: T1, PDE9A; conditions: isolated enzyme, concentrations of up to 100 μM; cited from earlier work
[3] = target: T2, Murine PDE9A (Mus musculus, UniProt O70628); conditions: concentrations below 200 μM; cited from earlier work
T2 sequence (O70628 1-534): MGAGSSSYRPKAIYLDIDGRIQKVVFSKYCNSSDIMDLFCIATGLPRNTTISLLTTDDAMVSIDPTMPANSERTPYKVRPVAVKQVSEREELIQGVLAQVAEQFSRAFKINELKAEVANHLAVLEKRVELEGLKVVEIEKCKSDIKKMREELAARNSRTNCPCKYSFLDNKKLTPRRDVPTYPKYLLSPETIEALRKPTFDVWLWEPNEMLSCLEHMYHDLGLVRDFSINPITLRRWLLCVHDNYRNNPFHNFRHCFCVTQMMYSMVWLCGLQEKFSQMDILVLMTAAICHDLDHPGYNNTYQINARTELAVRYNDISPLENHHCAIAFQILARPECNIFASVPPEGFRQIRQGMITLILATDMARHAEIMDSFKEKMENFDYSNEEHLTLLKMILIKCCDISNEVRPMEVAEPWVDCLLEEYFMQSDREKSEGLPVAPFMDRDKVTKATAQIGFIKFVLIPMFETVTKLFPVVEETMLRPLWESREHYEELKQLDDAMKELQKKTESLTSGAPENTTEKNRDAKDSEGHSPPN

T1 sequence (O76083 whole entry): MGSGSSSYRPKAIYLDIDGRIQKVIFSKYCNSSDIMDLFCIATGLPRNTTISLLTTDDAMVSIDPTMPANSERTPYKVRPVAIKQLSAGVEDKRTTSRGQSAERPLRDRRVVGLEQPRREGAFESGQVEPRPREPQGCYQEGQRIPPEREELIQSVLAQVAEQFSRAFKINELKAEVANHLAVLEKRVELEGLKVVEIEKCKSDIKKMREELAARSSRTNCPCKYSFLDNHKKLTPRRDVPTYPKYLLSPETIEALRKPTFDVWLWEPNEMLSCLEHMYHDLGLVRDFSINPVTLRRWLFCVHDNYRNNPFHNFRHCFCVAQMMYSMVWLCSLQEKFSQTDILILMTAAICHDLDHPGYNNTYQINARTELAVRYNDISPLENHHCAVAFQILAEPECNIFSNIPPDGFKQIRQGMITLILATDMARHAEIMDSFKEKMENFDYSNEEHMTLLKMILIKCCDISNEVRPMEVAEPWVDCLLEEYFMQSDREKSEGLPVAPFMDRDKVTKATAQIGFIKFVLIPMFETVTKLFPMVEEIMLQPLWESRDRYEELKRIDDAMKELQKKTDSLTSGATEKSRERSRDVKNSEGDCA

Structure (SMILES) | melting point [°C] | also measured
O=c1[nH]c(Cc2cccc(Cl)c2)nc2c1cnn2C1CCCC1 [Example 1, 6-(3-Chlorobenzyl)-1-cyclopentyl-1,5-dihydro-4H-pyrazolo[3,4-d]pyrimidin-4-one] | 159 | IC50 [1]: 0.02 µM
O=c1[nH]c(Cc2ccccc2F)nc2c1cnn2C1CCCC1 [Example 2, 6-(2-Fluorobenzyl)-1-cyclopentyl-1,5-dihydro-4H-pyrazolo[3,4-d]pyrimidin-4-one] | 180 | IC50 [1]: 0.03 µM
O=c1[nH]c(Cc2cccc(Br)c2)nc2c1cnn2C1CCCC1 [Example 3, 6-(3-Bromobenzyl)-1-cyclopentyl-1,5-dihydro-4H-pyrazolo[3,4-d]pyrimidin-4-one] | 159 | 
O=c1[nH]c(Cc2ccc(Cl)c(Cl)c2)nc2c1cnn2C1CCCC1 [Example 4, 6-(3,4-Dichlorobenzyl)-1-cyclopentyl-1,5-dihydro-4H-pyrazolo[3,4-d]pyrimidin-4-one] | 198 | IC50 [1]: 0.03 µM
CC(C)Cn1c(=O)n(C)c(=O)c2[nH]cnc21 [IBMX] |  | inhibition of human PDE9A [2]: no inhibition; inhibition of murine PDE9A [3]: not inhibited
CC(=O)Nc1ccc(-c2c[nH]c(=O)cn2)cc1 [SKF94120] |  | inhibition of human PDE9A [2]: no inhibition
OCCN(CCO)c1nc(N2CCCCC2)c2nc(N(CCO)CCO)nc(N3CCCCC3)c2n1 [dipyridamole] |  | inhibition of human PDE9A [2]: no inhibition
COc1ccc(C2CNC(=O)C2)cc1OC1CCCC1 (stereo not drawn) [rolipram] |  | inhibition of human PDE9A [2]: no inhibition
CCOC(=O)C1=C[C@]2(CC)CCCN3CCc4c(n1c1ccccc41)[C@@H]32 [vinpocetine] |  | inhibition of human PDE9A [2]: no inhibition

Second part, led by results:

melting point [°C] | Structure (SMILES) | also measured
177 | O=c1[nH]c(Cc2cc(Cl)cc(Cl)c2)nc2c1cnn2C1CCCC1 [Example 5, 6-(3,5-Dichlorobenzyl)-1-cyclopentyl-1,5-dihydro-4H-pyrazolo[3,4-d]pyrimidin-4-one] | 
181 | O=c1[nH]c(Cc2cccc(Cl)c2Cl)nc2c1cnn2C1CCCC1 [Example 6, 6-(2,3-Dichlorobenzyl)-1-cyclopentyl-1,5-dihydro-4H-pyrazolo[3,4-d]pyrimidin-4-one] | 
138 | CCC(CC)n1ncc2c(=O)[nH]c(Cc3cccc(Cl)c3)nc21 [Example 7, 6-(3-Chlorobenzyl)-1-(1-ethylpropyl)-1,5-dihydro-4H-pyrazolo[3,4-d]pyrimidin-4-one] | 
152 | Cc1cccc(Cc2nc3c(cnn3C3CCCC3)c(=O)[nH]2)c1 [Example 8, 6-(3-Methylbenzyl)-1-cyclopentyl-1,5-dihydro-4H-pyrazolo[3,4-d]pyrimidin-4-one] | 
134 | CCC(CC)n1ncc2c(=O)[nH]c(Cc3cc(Cl)ccc3Cl)nc21 [Example 9, 6-(2,5-Dichlorobenzyl)-1-(1-ethylpropyl)-1,5-dihydro-4H-pyrazolo[3,4-d]pyrimidin-4-one] | 
128 | CCC(CC)n1ncc2c(=O)[nH]c(Cc3cccc(C)c3)nc21 [Example 10, 6-(3-Methylbenzyl)-1-(1-ethylpropyl)-1,5-dihydro-4H-pyrazolo[3,4-d]pyrimidin-4-one] | IC50 [1]: 0.064 µM
120 | CCC(CC)n1ncc2c(=O)[nH]c(Cc3cccc(C(F)(F)F)c3)nc21 [Example 11, 1-(1-Ethylpropyl)-6-[3-(trifluoromethyl)benzyl]-1,5-dihydro-4H-pyrazolo[3,4-d]-pyrimidin-4-one] | 
154 | S=c1[nH]c(Cc2cccc(Cl)c2)nc2c1cnn2C1CCCC1 [Example 13, 6-(3-Chlorobenzyl)-1-cyclopentyl-1,5-dihydro-4H-pyrazolo[3,4-d]pyrimidine-4-thione] | IC50 [1]: 0.03 µM
161 | O=c1[nH]c(Cc2ccccc2OC(F)(F)F)nc2c1cnn2C1CCCC1 [Example 14, 1-Cyclopentyl-6-[2-(trifluoromethoxy)benzyl]-1,5-dihydro-4H-pyrazolo[3,4-d]-pyrimidin-4-one] | 

Source: US8158633B2, “Phenyl-substituted pyrazolopyrimidines” (Boehringer Ingelheim International GmbH, priority 2002, dated 2012)
